Measurements as given in US20050214328A1, “Methods of using and compositions comprising immunomodulatory compounds for the treatment and management of skin diseases or disorders” (priority 2004, published 2005).
≈ marks a conversion by molar mass, not a printed value. Where “and” joins values, the source holds several entries; their conditions need not be identical. Equal values may be shown once.

Key:
TNF-α [1] = assay: Inhibition of TNF-α production following LPS-stimulation of human PBMC; type: cell-based; conditions: for IC50: human PBMC, LPS, read-out: IC50 for inhibiting production of TNF-α following LPS-stimulation of PBMC; for secretion of the pro-inflammatory cytokine TNF-α: in vitro
From the text: (§1) The pharmacological properties of 3-(4-amino-1-oxo-1,3-dihydro-isoindol-2-yl)-piperidine-2,6-dione or 4-(amino)-2-(2,6-dioxo-(3-piperidyl))-isoindoline-1,3-dione, including activity comparisons with thalidomide, are characterized in in vitro studies. Studies examined the effects of 3-(4-amino-1-oxo-1,3-dihydro-isoindol-2-yl)-piperidine-2,6-dione, 4-(amino)-2-(2,6-dioxo-(3-piperidyl))-isoindoline-1,3-dione or thalidomide on the production of various cytokines.
(§2) Inhibitions of TNF-α production following LPS-stimulation of human PBMC and human whole blood by an immunomodulatory compound such as 3-(4-amino-1-oxo-1,3-dihydro-isoindol-2-yl)-piperidine-2,6-dione, 4-(amino)-2-(2,6-dioxo-(3-piperidyl))-isoindoline-1,3-dione or thalidomide were investigated in vitro.

[2] = cited from earlier work; for interconversion in acetone: acetone (and other anhydrous) solvent systems
TNF-α [3] = assay: Inhibition of TNF-α production following LPS-stimulation of human whole blood; type: cell-based; conditions: read-out: IC50 for inhibiting production of TNF-α following LPS-stimulation of human whole blood
From the text: as §2

IL1β = assay: LPS-stimulated production of IL1β by PBMC; type: cell-based; conditions: for secretion of the pro-inflammatory cytokine IL1β: in vitro
From the text: as §1

IL6 = assay: LPS-stimulated production of IL6 by PBMC; type: cell-based; conditions: for secretion of the pro-inflammatory cytokine IL6: in vitro
From the text: as §1

IL10 = assay: Production of anti-inflammatory cytokine IL10 by PBMC; type: cell-based; conditions: for production of the anti-inflammatory cytokine IL10: PBMC; for secretion of the anti-inflammatory cytokine IL10: in vitro
From the text: as §1

TNF-α mRNA = assay: Degradation of TNF-α mRNA; type: cell-based; conditions: in vitro
From the text: as §1

T-cells = assay: Proliferation of T-cells following primary induction by T-cell receptor (TCR) activation; type: cell-based; conditions: in vitro
From the text: as §1

IL2 = IL2 production following TCR activation of PBMC; type: cell-based; conditions: in vitro
From the text: as §1

IFN-γ = IFN-γ production following TCR activation of T-cells; type: cell-based; conditions: in vitro
From the text: as §1

[4] = tested on: cardiovascular and respiratory functions; conditions: dog, in vivo; for arterial blood pressure: 2 mg/kg
Method: In addition, a safety pharmacology study of 3-(4-amino-1-oxo-1,3-dihydro-isoindol-2-yl)-piperidine-2,6-dione or 4-(amino)-2-(2,6-dioxo-(3-piperidyl))-isoindoline-1,3-dione was conducted in dogs. The effects of the compound on cardiovascular and respiratory functions were examined in anesthetized dogs. One group of Beagle dogs (2/sex/group) received three doses of vehicle only and the other received three ascending doses of 2, 10 and 20 mg/kg of the compound. […] The cardiovascular and respiratory changes induced by the compound were minimal at all doses when compared to the vehicle control group.

acne = assay: Clinical study in acne; type: in vivo, human; conditions: oral about 5 mg daily, continuous
Method: (§3) 3-(4-Amino-1-oxo-1,3-dihydro-isoindol-2-yl)-piperidine-2,6-dione or 4-(amino)-2-(2,6-dioxo-(3-piperidyl))-isoindoline-1,3-dione is administered in an amount of from about 1 to about 25 mg per day to treat acne. Patients receive continuous treatment with the compound at a oral dose of about 5 mg daily.

[5] = tested on: actinic or senile keratoses; assay: Clinical study in patients with actinic or senile keratoses; type: in vivo, human; conditions: oral 25 mg daily, continuous, baseline vs after eight weeks, FIG. 1
Method: as §3, with “patients with keratoses for eight weeks, and the responses are subsequently assessed. For example, clinical studies are performed for 3-(4-amino-1-oxo-1,3-dihydro-isoindol-2-yl)-piperidine-2,6-dione in patients with actinic or senile keratoses.” for “treat acne.”, “25” for “about 5”

wrinkles = assay: Clinical study in patients with wrinkles; type: in vivo, human; conditions: oral about 5 mg daily, continuous
Method: as §3, with “reduce or correct wrinkles of patients. For example, clinical studies are performed for 3-(4-amino-1-oxo-1,3-dihydro-isoindol-2-yl)-piperidine-2,6-dione in patients with wrinkles.” for “treat acne.”

O=C1CCC(N2C(=O)c3ccccc3C2=O)C(=O)N1 (stereo not shown) [Thalidomide, thalidomide, reference compound]
IC50 (TNF-α [1]): 50.1 µg/mL (≈ 194 µM)

Nc1cccc2c1CN(C1CCC(=O)NC1=O)C2=O (stereo not shown) [Form D, 3-(4-amino-1-oxo-1,3 dihydro-isoindol-2-yl)-piperidene-2,6-dione]
form conversion at higher relative humidities [2]: convert to Form B

Nc1cccc2c1CN(C1CCC(=O)NC1=O)C2=O (stereo not shown) [Form B, 3-(4-amino-1-oxo-1,3 dihydro-isoindol-2-yl)-piperidene-2,6-dione]
form conversion upon heating ([2]; 175° C. for about five minutes): convert to Form F | interconversion in acetone [2]: converts to other forms | form stability / interconversion in aqueous solvent systems ([2]; aqueous solvent systems): converts to Form E

Nc1cccc2c1CN(C1CCC(=O)NC1=O)C2=O (stereo not shown) [Form E, 3-(4-amino-1-oxo-1,3 dihydro-isoindol-2-yl)-piperidene-2,6-dione]
interconversion in THF ([2]; THF solvent system): Form G | form conversion upon heating (desolvation) ([2]; about 125° C. for about five minutes): convert to Form B | interconversion in acetone [2]: convert to Form C

Nc1cccc2c1C(=O)N(C1CCC(=O)NC1=O)C2=O (stereo not shown) [4-(amino)-2-(2,6-dioxo(3-piperidyl))-isoindoline-1,3-dione]
LPS-stimulated production of TNF-α by PBMC (TNF-α [1]): dose-dependent inhibition | IC50 (TNF-α [1]): ~24 nM and 0.00655 µg/mL | secretion of the pro-inflammatory cytokine TNF-α (TNF-α [1]): markedly inhibited | IC50 (TNF-α [3]): ~25 nM and 0.00683 µg/mL | LPS-stimulated production of IL1β by PBMC (IL1β): dose-dependent inhibition | secretion of the pro-inflammatory cytokine IL1β (IL1β): markedly inhibited | LPS-stimulated production of IL6 by PBMC (IL6): dose-dependent inhibition | secretion of the pro-inflammatory cytokine IL6 (IL6): markedly inhibited | production of the anti-inflammatory cytokine IL10 (IL10): increased | secretion of the anti-inflammatory cytokine IL10 (IL10): increased | degradation of TNF-α mRNA (TNF-α mRNA): enhanced | T-cell proliferation (T-cells): induced | IL2 production (IL2): induced | IFN-γ production (IFN-γ): induced | deviations in femoral blood flow, respiratory parameters and QTc interval [4]: not considered treatment-related | arterial blood pressure [4]: small transient increase | acne (size and number of visible cutaneous infections and/or pimples) (acne): significant improvements

Nc1cccc2c1CN(C1CCC(=O)NC1=O)C2=O (stereo not shown) [Form C, 3-(4-amino-1-oxo-1,3 dihydro-isoindol-2-yl)-piperidene-2,6-dione]
hygroscopicity ([2]; below about 85% RH): not hygroscopic | form conversion at higher relative humidities [2]: can convert to Form B

Nc1cccc2c1CN(C1CCC(=O)NC1=O)C2=O (stereo not shown) [3-(4-amino-1-oxo-1,3-dihydro-isoindol-2-yl)-piperidine-2,6-dione]
LPS-stimulated production of TNF-α by PBMC (TNF-α [1]): dose-dependent inhibition | IC50 (TNF-α [1]): ~100 nM and 0.0259 µg/mL | secretion of the pro-inflammatory cytokine TNF-α (TNF-α [1]): markedly inhibited | IC50 (TNF-α [3]): ~480 nM and 0.104 µg/mL | LPS-stimulated production of IL1β by PBMC (IL1β): dose-dependent inhibition | secretion of the pro-inflammatory cytokine IL1β (IL1β): markedly inhibited | LPS-stimulated production of IL6 by PBMC (IL6): dose-dependent inhibition | secretion of the pro-inflammatory cytokine IL6 (IL6): markedly inhibited | production of the anti-inflammatory cytokine IL10 (IL10): increased | secretion of the anti-inflammatory cytokine IL10 (IL10): increased | degradation of TNF-α mRNA (TNF-α mRNA): enhanced | T-cell proliferation (T-cells): induced | IL2 production (IL2): induced | IFN-γ production (IFN-γ): induced | deviations in femoral blood flow, respiratory parameters and QTc interval [4]: not considered treatment-related | arterial blood pressure [4]: small transient increase | clinical response in patients with actinic or senile keratoses [5]: remarkable clinical benefit | clinical response in patients with wrinkles (wrinkles): remarkable clinical benefit | acne (size and number of visible cutaneous infections and/or pimples) (acne): significant improvements
